pEC50: −log10 of the molar value. “Also recorded” adds a separate entry of the source. Read-outs that look alike come from different tables or passages of the source.

Assay [1] relates to SARS-CoV-2. In words: Cell-based antiviral drug testing in Vero-E6 cells. Particulars: for antiviral activity (in words): top 9 screened compounds, Vero-E6, percent inhibition, SRB assay.
Assay [2] has as its system SARS-CoV-2. It is filed as cell-based.

As to `Cc1oc(-c2ccccc2)nc1CCC(=O)c1ccc(CC2SC(=O)NC2=O)cc1` (stereo not shown) [Darglitazone Sodium], in the assay with SARS-CoV-2 [1], the pEC50 was over 5.00 and the “antiviral activity (in words)” value is given as “substantial antiviral activity”. Moreover, in the assay on SARS-CoV-2 [2], the “inhibition of viral particle production (in words)” value (“inhibition” below) was “greater anti-SARS-CoV-2 activity” and the “reduction of infectious virus production” value is reported as “over 3 orders of magnitude”. In addition, the “inhibition” value in the assay on SARS-CoV-2 [2] (listed as darglitazone sodium) was “inhibit production of SARS-CoV-2”.

Turning to `C/C=C(/C)C(=O)OC(C)(C)[C@@H]1Cc2c(ccc3ccc(=O)oc23)O1` [Columbianadin], in the assay with SARS-CoV-2 [1], the “antiviral activity (in words)” value was “substantial antiviral activity”. Besides, the “inhibition” value with SARS-CoV-2 [2] is given as “inhibit production of SARS-CoV-2”.

For the molecule `CNC(=O)c1ccc(-c2cnc3ncc(Cc4ccc5ncccc5c4)n3n2)cc1F` [INCB28060], in the assay on SARS-CoV-2 [1], the “antiviral activity (in words)” value was “best antiviral activity; also recorded: substantial antiviral activity”. Further, in the assay on SARS-CoV-2 [2], the “inhibition” value was “inhibit production of SARS-CoV-2; also recorded: greater anti-SARS-CoV-2 activity” and the “reduction of infectious virus production” value is “over 3 orders of magnitude”.

Source of the values: PMC9539459 (Virology, 2022).
